The values below come from ChEMBL document CHEMBL5329225, “Solubilizer Tag Effect on PD-L1/Inhibitor Binding Properties for m-Terphenyl Derivatives” (ACS Med Chem Lett, 2024).

Usually IC50 stands for the concentration that inhibits the measured activity by half.

In series [1] the test system is Jurkat. In words: Induction of T cell activation in human Jurkat T cells overexpressing PD-1 co-cultured with Chinese hamster CHO cells overexpressing PD-L1 assessed as increase in luciferase activity incubated for 6 hrs by Bio-GloTM reagent based immune checkpoint blockade assay. The format is functional.
The nature of series [2]: Toxicity in human Jurkat T cells overexpressing PD-1 co-cultured with Chinese hamster CHO cells overexpressing PD-L1 at 0.01 to 100 uM. The note with it: dose 0.01-100 µM. The format is cell-based.
The test system of series [3] is Jurkat. The experiment in a line: Induction of T cell activation in human Jurkat T cells overexpressing PD-1 co-cultured with Chinese hamster CHO cells overexpressing PD-L1 assessed as increase in luciferase activity at 1 uM incubated for 6 hrs by Bio-GloTM reagent based immune checkpoint blockade assay. The format is functional.
The subject of series [4] is Jurkat. The experiment in a line: Induction of T cell activation in human Jurkat T cells overexpressing PD-1 co-cultured with Chinese hamster CHO cells overexpressing PD-L1 assessed as increase in luciferase activity at 6.4 uM incubated for 6 hrs by Bio-GloTM reagent based immune checkpoint blockade assay. The format is functional.
Series [5] deals with Programmed cell death protein 1/Programmed cell death 1 ligand 1 (Homo sapiens, UniProt Q9NZQ7). The experiment in a line: Inhibition of human PD-1/PDL1 interaction incubated for 1 hr by HTRF assay. The format is protein-complex assay. (In general: TR-FRET usually uses a lanthanide donor and a delayed reading to cut background.)
Sequence of Programmed cell death protein 1/Programmed cell death 1 ligand 1 (Q15116 whole entry): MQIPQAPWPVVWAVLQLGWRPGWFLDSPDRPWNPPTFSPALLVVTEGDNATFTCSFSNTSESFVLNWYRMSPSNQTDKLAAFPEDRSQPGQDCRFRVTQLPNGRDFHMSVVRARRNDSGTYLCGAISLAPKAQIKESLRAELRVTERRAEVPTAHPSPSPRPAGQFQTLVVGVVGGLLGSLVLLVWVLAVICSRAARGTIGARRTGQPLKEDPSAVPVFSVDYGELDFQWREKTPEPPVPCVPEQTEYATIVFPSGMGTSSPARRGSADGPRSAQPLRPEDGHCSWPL
Sequence of Programmed cell death protein 1/Programmed cell death 1 ligand 1 (Q9NZQ7 whole entry): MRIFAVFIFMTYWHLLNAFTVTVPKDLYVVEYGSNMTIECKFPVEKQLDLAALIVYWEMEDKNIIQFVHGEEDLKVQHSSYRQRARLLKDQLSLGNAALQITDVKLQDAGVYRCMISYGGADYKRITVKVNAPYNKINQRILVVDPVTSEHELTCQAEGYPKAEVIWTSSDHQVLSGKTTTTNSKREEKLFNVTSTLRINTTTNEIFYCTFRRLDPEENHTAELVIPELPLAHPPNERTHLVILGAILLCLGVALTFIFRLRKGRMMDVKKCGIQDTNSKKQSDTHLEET

Activity calls are given as the source filed them. The rule behind the calls is not given here.

In the case of `COc1cc(-c2cccc(-c3ccc4c(c3)OCCO4)c2Cl)ccc1CN1CCC(C(=O)NCCO)C1` (stereo not given), the Activity entry is “Dose-Dependent Effect” with Jurkat [1] and “Toxic” in series [2].
In the case of `COc1cc(-c2cccc(-c3ccc4c(c3)OCCO4)c2Cl)ccc1CN1CCC(C(=O)NC(CO)(CO)CO)C1` (stereo not given), the outcome with Jurkat [3] and in the series with Jurkat [4] was inactive.
For `COc1cc(-c2cccc(-c3ccc4c(c3)OCCO4)c2Cl)ccc1CN1CCC(C(=O)NC(CO)CO)C1` (stereo not given), in the series on Jurkat [3], the outcome was inactive. Further, the outcome in the series with Jurkat [4] was Active. The Activity result is “Dose-Dependent Effect” in the series on Jurkat [1] and “Toxic” in series [2].
`COc1cc(-c2cccc(-c3ccc4c(c3)OCCO4)c2Cl)ccc1CN1CCC(C(=O)NO)C1` (stereo not given): the outcome in the series on Jurkat [3] was inactive.
On to `COc1cc(-c2cccc(-c3ccc4c(c3)OCCO4)c2Cl)ccc1CN1CCC(C(=O)NN(C)C)C1` (stereo not given), for which, in the series with Jurkat [4], the outcome was Active. Besides, the values for the Activity entry (with Jurkat [1]; in series [2]) were “Dose-Dependent Effect” and “Toxic”, respectively.
In the case of `COc1cc(-c2cccc(-c3ccc4c(c3)OCCO4)c2Cl)ccc1CN1CCC(C(=O)NCCN)C1` (stereo not given), the result in the series with Jurkat [3] and in the series with Jurkat [4] was inactive.
On to `COc1cc(-c2cccc(-c3ccc4c(c3)OCCO4)c2Cl)ccc1CN1CCCC(C(=O)NC(CO)CO)C1` (stereo not given), for which 6 nM corresponded to half-maximal inhibition in series [5] (IC50). That is a single-digit nanomolar value.
